From US6359015B1, “Method for antagonizing inhibition effects of alcohol on cell adhesion” (The United States of America as represented by the …, priority 2000, dated 2002)

B1: BMP-7: growth factor that induces expression of L1 in neural cells (protein, UniProt P18075 293-431, looked up)
Bone morphogenetic protein 7: STGSKQRSQNRSKTPKNQEALRMANVAENSSSDQRQACKKHELYVSFRDLGWQDWIIAPEGYAAYYCEGECAFPLNSYMNATNHAIVQTLVHFINPETVPKPCCAPTQLNAISVLYFDDSSNVILKKYRNMVVRACGCH

Tests used:
[1] = from published source or octanol/water partition coefficient divided by 5; cited from earlier work
[2] = published or calculated from molecular weight and density at 20° C.; cited from earlier work
[3] = tested on: BMP-7 treated NG108-15 neuroblastoma×glioma cells; experiment: Cell-cell adhesion (short-term aggregation) assay in BMP-7 treated NG108-15 cells; format: cell-based, rat and mouse; conditions: for Inhibition of cell-cell adhesion at higher concentrations (in words): concentrations 5-10 fold higher than those reported in Table 1; for Inhibition of cell-cell adhesion (in words): both cellular systems (NG108-15 + BMP-7 and L1-expressing NIH/3T3)
Experimental: NIH/3T3 cells were cultured in Dulbecco's minimum Eagle medium (DMEM) (Life Technologies, Gaithersburg, Md.) supplemented with 10% normal calf serum (Intergen, Purchase, N.Y.) and 400 μg/ml G418 (Life Technologies). NG108-15 neuroblastoma×glioma cells (passages 21 to 30) were plated in serum-free, defined medium (Reference 16). At the start of the morphogenetic and cell adhesion assays, serum-free medium containing BMP-7 (Creative BioMolecules, Hopkinton, Ma.) (1-40 ng/ml, final) was added daily to the NG108-15 cells. Both cell lines were cultured at 37° C., in an atmosphere of 90% air and 10% CO2. Three NIH/3T3 subclones were utilized in these studies: 2B2-L1, 2A2-L1 and Vec-1A5. The 2B2-L1 and 2A2-L1 cell lines are subclones derived from a stable transfection of NIH/3T3 cells with the human L1 cDNA, and Vec-1A5 is a subclone from a transfection with the empty expression vector (Reference 12).
Cells were cultured and cell adhesion assays were performed in the absence and presence of the alcohols listed below in Table 1. The concentrations of alcohols used in the adhesion assays were calculated to produce membrane concentrations equivalent to 50-100 mM ethanol. Membrane/buffer partition coefficients (Pm/b) were obtained or were calculated from published octanol/water partition coefficients (Reference 15). Molar volumes were obtained from published sources (References 15) or were calculated from molecular weights and densities at 20° C.
(§1) Cell-cell adhesion was measured using a modified short-term aggregation assay of sub-confluent cells (Reference 12). Cells were detached by gentle agitation, mechanically dissociated to obtain a single-cell suspension, and diluted in PBS supplemented with 0.1 mg/ml DNase to 350,000 cells/ml for the NIH/3T3 cells, and 250,000 cells/ml for the NG108-15 cells. One ml of the cell suspension was added per well (4.5 cm^2) of a 12-well plate. After addition of the alcohols, the cells were gently mixed and mechanically shaken for 30 minutes at room temperature on an orbital shaker set at 60 to 80 rpm. Cells were viewed at a final magnification of 200×, and each well was scored for single and adherent cells in five or six microscopic fields of view. We counted approximately 100 cells per field of view and 600 cells per well. The percentage of adherent cells was calculated for each microscopic field of view and averaged. To calculate the magnitude of ethanol inhibition, we subtracted the values for cell adhesion with the Vec-1A5 cells from those of the 2B2-L1 or 2A2-L1 cell lines. Similarly, the values for cell adhesion in NG108-15 cells cultured in serum-free medium were subtracted from those of NG108-15 cells treated with BMP-7.
We tested the effects of a series of alcohols on cell-cell adhesion in two well-characterized model systems. NG108-15 cells were incubated for 48 hours in a serum-free medium supplemented with 10-20 ng/ml BMP-7 to induce L1 and N-CAM gene expression (Reference 10). Parallel experiments were performed using two ethanol-sensitive NIH/3T3 cell lines transfected with human L1 (2B2-L1 and 2A2-L1) (Reference 12) and a NIH/3T3 cell line transfected with the empty expression vector (1A5-V).

[4] = tested on: BMP-7 treated NG108-15 cells; experiment: Antagonism of short-chain alcohol inhibition of cell adhesion in BMP-7 treated NG108-15 cells; format: cell-based, rat and mouse
Experimental: as §1

[5] = tested on: NIH/3T3-L1 (2B2-L1) cells; experiment: Antagonism of 1-butanol inhibition of cell adhesion in NIH/3T3-L1 (2B2-L1) cells; format: cell-based, rat; conditions: 2B2L1 cells, no 1-octanol pretreatment, washed
Experimental: as §1, with “BMP-7. […]” for “BMP-7.”

[6] = tested on: NG108-15 cells; experiment: BMP-7 morphogenesis (cell clusters) in NG108-15 cells; format: cell-based, rat and mouse; conditions: 0.1-40 ng/ml BMP-7, 3 days
Experimental: NG108-15 cells were plated from suspensions of single cells at a density of 50,000 cells/well in poly-D-lysine-coated, 6-well plated containing serum-free medium in the absence or presence of BMP-7, as described (References 17-18). […] Control cultures were treated similarly. The media for all cells was replaced daily following the addition of ethanol. […] A cell cluster was defined as a group of three or more cells that adhered to each other along at least one quarter of their cell bodies (Reference 19). The percentage of cells in clusters was calculated by dividing the number of cells present in clusters by the total number of cells (150 to 200) in each field. Values obtained for each field of a treatment group were then averaged.
Treatment with BMP-7 for 48 hours causes NG108-15 cells to grow in clusters of adherent cells (BMP-7 morphogenesis), rather than as predominantly single cells.
The percentage of cells in clusters of three or more cells was scored from two separate fields viewed under 200×magnification.

Molecule	P(m/b) membrane/buffer partition coefficient [1]	Vm molar volume [2] [mL/mol]	Inhibition of cell-cell adhesion (in words) [3]	further results
CC(C)CCCO [4-methyl-1-pentanol]	9.36	126		Inhibition of cell-cell adhesion at higher concentrations (in words) [3]: inactivity
CC(O)C1CC1 (stereo not drawn) [cyclopropyl-ethanol, cyclopropylethanol]	0.83	91	abolished activity	Inhibition of cell-cell adhesion at higher concentrations (in words) [3]: inactivity
CCCO [1-propanol]			active	
C=CCCO [3-buten-1-ol]	1.00	86	abolished activity	Inhibition of cell-cell adhesion at higher concentrations (in words) [3]: inactivity
CC(C)(C)CCO [3,3-dimethyl-1-butanol]	5.77	121	did not reduce activity	Potency for inhibition of cell adhesion relative to 2-ethyl-1-butanol ([3]; IC50 comparison, FIG. 2): more than four times as potent
CCCC(C)(C)O [2-methyl-2-pentanol]	5.20	122		
CCCC(C)O (stereo not drawn) [2-pentanol]	4.38	109	abolished activity	
OCc1ccccc1 [benzyl alcohol]	2.52	104	did not	
CCCCCO [1-pentanol]	5.02	108	not inhibited	Antagonism of inhibition of cell-cell adhesion by 1-butanol (in words) ([4]; 2 mM 1-butanol, BMP-7 treated NG108-15 cells): completely abolished; Antagonism of the effects of 3-methyl-1-butanol on cell adhesion (in words) ([4]; 3 mM 3-methyl-1-butanol): abolished; Antagonism of the effects of ethanol on cell adhesion (in words) ([4]; 100 mM ethanol): abolished; IC50 ([4]; NG108-15, read-out: IC50 for antagonism of 1-butanol (and ethanol) inhibition of cell-cell adhesion): 715 µM; Inhibition of cell-cell adhesion at higher concentrations (in words) [3]: inactivity
OC1CCCC1 [cyclopentanol]	2.24	92	did not	Inhibition of cell-cell adhesion at higher concentrations (in words) [3]: inactivity
1-butanol			maximally inhibited	1-butanol inhibition of cell-cell adhesion, control [5]: 43.6±3.0%
CC(C)CO [2-methyl-1-propanol]	1.10	90	active	
OC1CCC1 [cyclobutanol]	0.91	78	inhibited	
CCC(CC)CO [2-ethyl-1-butanol]	9.14	123	did not reduce activity	
CCC(O)CC [3-pentanol]	4.69	107		
OCC1CC1 [cyclopropyl methanol]	0.71	71	active	
CC(C)c1cccc(C(C)C)c1O [propofol]	1.00	86	did not inhibit	
CC(C)CCO [3-methyl-1-butanol]	2.89	109	did not reduce activity	
B1				Percentage of cell clusters [6]: dose-dependent increase; Percentage of adherent NG108-15 cells ([3]; 48 hours, 10-20 ng/ml BMP-7, control 17.0±[…]): 50.0±1.4%
